Source: patent US20210300900A1, “OGA INHIBITOR COMPOUNDS” (Janssen Pharmaceutica NV, priority 2018, published 2021)

Experiments:
[1] = target: T1, recombinant human Meningioma Expressed Antigen 5 (MGEA5), also referred to as O-GcNAcase (OGA) (Homo sapiens, UniProt O60502); test: OGA biochemical assay (inhibition of FM-GlcNAc hydrolysis, fluorescence); conditions: FM-GlcNAc substrate; for Emax: read-out: Enzymatic Emax (%); for IC50: read-out: Enzymatic hOGA, pIC50 (converted)
T1 construct: Full length OGA enzyme was purchased at OnGene (cat #TP322411); purchased OnGene (so in the source)
T1 sequence (O60502 1-916): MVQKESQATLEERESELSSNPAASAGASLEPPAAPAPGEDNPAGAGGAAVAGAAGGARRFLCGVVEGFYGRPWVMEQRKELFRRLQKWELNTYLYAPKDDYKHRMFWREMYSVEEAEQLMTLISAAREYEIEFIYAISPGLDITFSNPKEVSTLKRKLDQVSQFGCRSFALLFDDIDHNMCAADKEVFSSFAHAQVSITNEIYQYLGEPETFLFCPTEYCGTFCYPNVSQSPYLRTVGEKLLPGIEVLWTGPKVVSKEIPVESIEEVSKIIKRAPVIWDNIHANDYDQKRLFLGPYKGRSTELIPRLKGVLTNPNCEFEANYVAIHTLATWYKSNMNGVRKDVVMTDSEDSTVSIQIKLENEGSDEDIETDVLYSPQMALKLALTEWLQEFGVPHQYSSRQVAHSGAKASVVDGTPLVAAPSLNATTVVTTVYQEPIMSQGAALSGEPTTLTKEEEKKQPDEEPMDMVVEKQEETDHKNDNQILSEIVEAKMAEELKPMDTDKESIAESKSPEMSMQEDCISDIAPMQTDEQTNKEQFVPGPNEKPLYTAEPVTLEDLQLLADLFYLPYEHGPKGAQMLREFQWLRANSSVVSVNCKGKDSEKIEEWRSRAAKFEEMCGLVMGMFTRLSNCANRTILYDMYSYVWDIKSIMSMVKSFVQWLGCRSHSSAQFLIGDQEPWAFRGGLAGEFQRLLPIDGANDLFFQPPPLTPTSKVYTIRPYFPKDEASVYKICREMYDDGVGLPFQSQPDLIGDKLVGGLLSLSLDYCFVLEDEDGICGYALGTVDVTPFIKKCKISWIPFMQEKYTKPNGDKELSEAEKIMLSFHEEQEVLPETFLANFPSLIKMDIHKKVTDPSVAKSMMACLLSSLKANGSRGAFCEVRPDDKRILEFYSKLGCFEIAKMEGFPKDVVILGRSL
Procedure, shortened: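 Full-length recombinant human OGA (2 nM) pre-incubated 60 min with compound, then FM-GlcNAc (100 uM final) added in 200 mM citrate/phosphate pH 7.2 with 0.005% Tween-20; 6 h at room temperature, stopped with pH 11.0 carbonate. Fluorescein read at ex 485/em 538 nm; IC50 and Hill coefficient from curve fit against no-inhibitor and saturating-standard controls.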

OGA = target: T2, OGA (Homo sapiens, UniProt O60502); test: OGA cellular assay (ICC detection of O-GlcNAcylated proteins in HEK293 cells inducible for P301L mutant human Tau); type: cell-based; conditions: 6 hours incubation; for Emax: HEK293, HEK293 cells inducible for P301L mutant human Tau; for Emax / Cellular Emax (%): maximum = Thiamet G 200 uM; for EC50 / Cellular hOGA; pEC50 / Cellular Emax (%): HEK293 cells inducible for P301L mutant human Tau; for EC50: read-out: Cellular hOGA, pEC50 (converted)
T2 construct: endogenous in cells; host or cells: HEK293 cells inducible for P301L mutant human Tau (isoform 2N4R)
T2 sequence (O60502 1-916): T1 sequence (O60502 1-916)
Experimental: HEK293 cells inducible for P301L mutant human Tau (isoform 2N4R) were established at Janssen. Thiamet-G was used for both plate validation (high control) and as reference compound (reference EC50 assay validation). OGA inhibition is evaluated through the immunocytochemical (ICC) detection of O-GlcNAcylated proteins by the use of a monoclonal antibody (CTD110.6; Cell Signaling, #9875) detecting O-GlcNAcylated residues as previously described (Dorfmueller et al. 2010 Chemistry & biology, 17:1250). Inhibition of OGA will result in an increase of O-GlcNAcylated protein levels resulting in an increased signal in the experiment. Cell nuclei are stained with Hoechst to give a cell culture quality control and a rough estimate of immediate compounds toxicity, if any. ICC pictures are imaged with a Perkin Elmer Opera Phenix plate microscope and quantified with the provided software Perkin Elmer Harmony 4.1.
Cells were propagated in DMEM high Glucose (Sigma, #D5796) following standard procedures. 2 days before the cell assay cells are split, counted and seeded in Poly-D-Lysine (PDL) coated 96-wells (Greiner, #655946) plate at a cell density of 12,000 cells per cm^2 (4,000 cells per well) in 100 μl of Assay Medium (Low Glucose medium is used to reduce basal levels of GlcNAcylation) (Park et al. 2014 The Journal of biological chemistry 289:13519). At the day of compound test medium from assay plates was removed and replenished with 90 μl of fresh Assay Medium. 10 μl of compounds at a 10 fold final concentration were added to the wells. Plates were centrifuged shortly before incubation in the cell incubator for 6 hours. DMSO concentration was set to 0.2%. Medium is discarded by applying vacuum. For staining of cells medium was removed and cells washed once with 100 μl D-PBS (Sigma, #D8537). From next step onwards unless other stated assay volume was always 50 μl and incubation was performed without agitation and at room temperature. Cells were fixed in 50 μl of a 4% paraformaldehyde (PFA, Alpha aesar, #043368) PBS solution for 15 minutes at room temperature. […] Before analysis samples were washed 2 times manually for 5 minutes in ICC base buffer.
Imaging is performed using Perkin Elmer Phenix Opera using a water 20×objective and recording 9 fields per well. Intensity readout at 488 nm is used as a measure of O-GlcNAcylation level of total proteins in wells. To assess potential toxicity of compounds nuclei were counted using the Hoechst staining. IC50-values are calculated using parametric non-linear regression model fitting. As a maximum inhibition Thiamet G at a 200 uM concentration is present on each plate. In addition, a concentration response of Thiamet G is calculated on each plate.

SMILES	Emax [1] [%]	IC50 [1] [nM]	Emax (OGA) [%]	EC50 (OGA) [nM]	Enzymatic Emax (%) [1] [%]	Enzymatic hOGA; pIC50 [1]	Cellular hOGA; pEC50 (OGA)	Cellular Emax (%) (OGA)
COc1cncc(C(C)N2CCC[C@H](Cc3cc(C)nc(C)c3)C2)c1 (mixture of isomers) [Product 43]	101	38	53	933				
CCOc1cncc(C(C)N2CCC[C@H](Cc3cc(C)nc(C)c3)C2)c1 (mixture of isomers) [Product 44]	100	26.9	41	> 1000				
CC(=O)Nc1cc(C(C)N2CCC[C@H](Cc3cc(C)nc(C(F)(F)F)c3)C2)n[nH]1 (mixture of isomers) [Product 70]	101	52.5	57	525				
COc1cc(C[C@H]2CCCN(C(C)c3nc(OC)ccc3F)C2)cc(C(F)(F)F)n1 (mixture of isomers) [Product 79]	104	43.7	8	> 1000				
COc1cc(NC[C@H]2CCCN(C(C)c3nc(OC)ccc3F)C2)cc(C)n1 (mixture of isomers) [Product 90]	102	12.3	79	117				
COc1ccc(F)c(C(C)N2CC[C@H](Cc3cc(C)nc(C)c3)C2)n1 (mixture of isomers) [Product 100]	97	912	10	> 1000				
CC(=O)Nc1cc(C(C)N2CC[C@H](Cc3cc(C)nc(C(F)(F)F)c3)C2)n[nH]1 (mixture of isomers) [Product 122]	92	1000	17	> 1000				
COc1cc(C(C)N2CC[C@H](Cc3cc(C)nc(OC)c3)C2)c(F)cn1 (mixture of isomers) [Product 130]	95	871	4	> 1000				
CC(=O)Nc1ccc(C(C)N2CCC[C@H](Cc3cc(C)nc(C)c3)C2)s1 (mixture of isomers) [Product 134]	101	4.68	59	240				
CC(=O)Nc1nc(C(C)N2CCC[C@H](Cc3cc(C)nc(C)c3)C2)c[nH]1 (mixture of isomers) [Product 136]	102	110	12	> 1000				
CC(=O)Nc1cc(C(C)N2CCC[C@H](Cc3cc(C)nc(C)c3)C2)n[nH]1 (stereo in doubt) [Product 3]	102	2.57	84	47.9				
CC(=O)Nc1cc(CN2CCC[C@H](Cc3cc(C)nc(C)c3)C2)n[nH]1 [Product 1]	101	21.4	56	692				
CC(=O)Nc1cc([C@H](C)N2CCC[C@H](Cc3cc(C)nc(C)c3)C2)n[nH]1 [Product 5]					104	8.91	7.44	80
CC(=O)Nc1cc(CN2CCC[C@H](Cc3cc(C)nc(C)c3)C2)nn1C [Product 6]	100	174	11	> 1000				
CCOc1cc([C@H](C)N2CCC[C@H](Cc3cc(C)nc(C)c3)C2)n[nH]1 [Product 16]					101	7.45	6.05	31
COCc1cc(C(C)N2CCC[C@H](Cc3cc(C)nc(C)c3)C2)n[nH]1 (stereo partly shown) [Product 19]	101	43.7	42	> 1000				
Cc1cc(C[C@H]2CCCN(Cc3cc(C4CC4)[nH]n3)C2)cc(C)n1 [Product 20]	96	851	11	> 1000				
CCOc1nc(CN2CCC[C@H](Cc3cc(C)nc(C)c3)C2)c[nH]1 [Product 23]	102	60.3	70	427				
CC(=O)Nc1ccc(CN2CCC[C@H](Cc3cc(C)nc(C)c3)C2)s1 [Product 28]	100	19.1	75	309				
